Measurements taken from PMC8279416, “Structural Fine-Tuning of Desmuramylpeptide NOD2 Agonists Defines Their In Vivo Adjuvant Activity” (Journal of Medicinal Chemistry, 2021).
Where “and” joins values, the source holds several entries; their conditions need not be identical. Identical values can stand only once.

Molecular target: T1, NOD2 (Homo sapiens, UniProt Q9HC29)
T1 construct: host or cells: HEK-Blue NOD2 cells (HEK293-derived)
Experiment: HEK-Blue NOD2 cell line reporter assay (NF-κB-inducible SEAP)
Type: cell-based
Settings: for NOD2 activity at 2 μM (fold increase): NF-κB transcriptional (SEAP) activity relative to 0.1% DMSO; for NOD2 activation (in words): compound alone
Method: To determine the NOD2 agonistic potential of the synthesized desmuramylpeptides at the cellular level, we used the validated and commercially available HEK-Blue NOD2 cell line reporter assay. HEK-Blue NOD2 cells were first treated for 18 h with MDP, 1, or the novel desmuramylpeptides at 2 μM. The NF-κB transcriptional activity measured was normalized to that of the vehicle treated (0.1% DMSO) control HEK-Blue NOD2 cells.
HEK-Blue NOD2 and NOD1 cell line reporter assays are derived from HEK293 cells by cotransfection of the hNOD2 or hNOD1 genes, respectively, and an NF-κB-inducible secreted embryonic alkaline phosphatase (SEAP) reporter gene. Following activation of NOD2 or NOD1, the resulting NF-κB induces production of SEAP, the levels of which can be quantified colorimetrically. […] After 18 h of incubation (37 °C, 5% CO2), secreted embryonic alkaline phosphatase (SEAP) activity was determined spectrophotometrically as absorbance at 630 nm (BioTek Synergy microplate reader; Winooski, VT, U.S.A.). EC50 values were calculated using Prism software (version 9; GraphPad Software, CA, U.S.A.). For determination of specificity, HEK-Blue NOD2 cells (2.5 × 10^5 cells/mL) were first pretreated for 1 h with a 10 μM NOD2 antagonist, before the addition of the compounds (2 μM), with incubation for 18 h. SEAP activity in the supernatants was determined as above. The experiments were run in duplicate and repeated as at least two independent biological replicates.

[1] = HEK-Blue NOD2 cells, 18 h, mean ± SEM
[2] = HEK-Blue NOD2 cells, 18 h, 7 or 8 concentrations 1 nM to 20 μM, mean ± SEM

T1 sequence (Q9HC29 whole entry): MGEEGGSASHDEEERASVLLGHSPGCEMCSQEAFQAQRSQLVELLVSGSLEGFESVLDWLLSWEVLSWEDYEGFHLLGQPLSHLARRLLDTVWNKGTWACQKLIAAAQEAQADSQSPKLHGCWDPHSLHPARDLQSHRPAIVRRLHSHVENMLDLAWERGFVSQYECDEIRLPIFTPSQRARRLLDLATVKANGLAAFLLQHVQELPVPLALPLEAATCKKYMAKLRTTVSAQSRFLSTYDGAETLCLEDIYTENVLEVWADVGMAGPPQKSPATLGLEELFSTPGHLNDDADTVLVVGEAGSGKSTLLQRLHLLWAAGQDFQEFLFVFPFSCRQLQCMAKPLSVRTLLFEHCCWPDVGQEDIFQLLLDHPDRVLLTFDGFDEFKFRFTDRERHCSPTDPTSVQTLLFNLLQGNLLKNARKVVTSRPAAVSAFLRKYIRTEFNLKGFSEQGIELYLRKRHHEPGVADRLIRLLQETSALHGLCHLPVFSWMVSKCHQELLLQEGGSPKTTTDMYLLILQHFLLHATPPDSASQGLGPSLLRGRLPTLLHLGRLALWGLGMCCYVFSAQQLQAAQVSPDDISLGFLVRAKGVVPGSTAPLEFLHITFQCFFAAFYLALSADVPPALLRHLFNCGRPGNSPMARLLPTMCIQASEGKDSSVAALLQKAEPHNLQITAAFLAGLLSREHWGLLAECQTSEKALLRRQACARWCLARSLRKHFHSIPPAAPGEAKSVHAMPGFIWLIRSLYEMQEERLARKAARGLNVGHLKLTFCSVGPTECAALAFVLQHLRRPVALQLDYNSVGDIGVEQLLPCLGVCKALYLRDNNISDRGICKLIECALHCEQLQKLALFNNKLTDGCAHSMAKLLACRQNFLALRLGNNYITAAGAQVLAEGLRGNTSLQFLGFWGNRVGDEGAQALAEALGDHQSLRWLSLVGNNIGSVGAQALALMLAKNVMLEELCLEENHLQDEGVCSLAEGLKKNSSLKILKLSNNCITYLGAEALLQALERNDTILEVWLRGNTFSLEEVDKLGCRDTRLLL

Row | EC50 (HEK-Blue NOD2 cells) [µM] | NOD2 activity at 2 μM (fold increase) [1] | EC50 [2] [µM] | Decrease of NOD2 agonistic activity/potency by a factor, relative to 1 (ratio of EC50 versus compound 1) | NOD2 activation (in words) (HEK-Blue NOD2 cells) | SMILES | Enhancement of the NOD2 agonistic activity of 1 (HEK-Blue NOD2 cells, in combination with 1, data not shown)
1 |  | 2.63 ± 0.10 fold increase | 0.049 ± 0.003 |  |  | CCOC(=O)CC[C@@H](NC(=O)[C@@H](NC(=O)CNC(=O)C1CC1c1ccc(F)c(F)c1)C(C)C)C(=O)OCC (stereo partly shown) [Compound 29] | 
2 | 6.16 | 1.97 ± 0.05 fold increase | 6.16 ± 0.842 | 70 |  | CCOC(=O)CC[C@@H](NC(=O)[C@@H](NC(=O)CNC(=O)CCc1ccc(O)c(OC)c1)C(C)C)C(=O)OCC [Compound 18, Diethyl (3-(4-Hydroxy-3-methoxyphenyl)propanoyl)glycyl-L-valyl-D-glutamate] | 
3 |  | 2.56 ± 0.12 fold increase | 0.243 ± 0.05 |  |  | CCCCCCCCCCCC(=O)Oc1ccc(/C=C/C(=O)NCC(=O)N[C@H](C(=O)N[C@H](CCC(=O)OC2CCCC2)C(=O)OC2CCCC2)C(C)C)cc1OC [Compound 77, Dicyclopentyl ((E)-3-(4-(Dodecanoyloxy)-3-methoxyphenyl)acryloyl)glycyl-L-valyl-D-glutamate] | 
4 |  | 1.20 ± 0.10 fold increase |  |  | markedly reduced NOD2 activation | COc1cc(/C=C/C(=O)NCC(=O)N[C@H](C(=O)N[C@H](CCC(=O)OC(C)(C)C)C(=O)OC(C)(C)C)C(C)C)ccc1O [Compound 56, Di-tert-butyl ((E)-3-(4-Hydroxy-3-methoxyphenyl)acryloyl)glycyl-L-valyl-D-glutamate] | 
5 | 6.16 | 1.66 ± 0.11 fold increase | 6.16 ± 1.16 |  |  | CCCCCCCCCCCCCCCCCC(=O)Oc1ccc(/C=C/C(=O)NCC(=O)N[C@H](C(=O)N[C@H](CCC(=O)OC2CCCC2)C(=O)OC2CCCC2)C(C)C)cc1OC [Compound 78, Dicyclopentyl ((E)-3-(3-Methoxy-4-(stearoyloxy)phenyl)acryloyl)glycyl-L-valyl-D-glutamate] | 
6 |  | 2.71 ± 0.05 fold increase | 0.039 ± 0.001 |  |  | CCOC(=O)CC[C@@H](NC(=O)[C@@H](NC(=O)CNC(=O)[C@@H]1C[C@H]1c1ccc(F)c(F)c1)C(C)C)C(=O)OCC [Compound 29b] | 
7 |  | 2.64 ± 0.01 fold increase | 0.763 ± 0.088 |  |  | CCOC(=O)CC[C@@H](NC(=O)[C@@H](NC(=O)CNC(=O)/C=C/c1ccc(OC)c(OC)c1)C(C)C)C(=O)OCC [Compound 20, Diethyl ((E)-3-(3,4-Dimethoxyphenyl)acryloyl)glycyl-L-valyl-D-glutamate] | 
8 |  |  |  |  | did not show any NOD2 activation alone | CCCCCCCCCCCC(=O)O [lauric acid, reference compound] | did not enhance the NOD2 agonistic activity of 1
9 |  | 1.54 ± 0.02 fold increase | 12.5 ± 1.22 |  |  | CCOC(=O)CC[C@@H](NC(=O)[C@@H](NC(=O)CNC(=O)/C=C/c1ccc(O)c(OC)c1)[C@@H](C)O)C(=O)OCC [Compound 32, Diethyl ((E)-3-(4-Hydroxy-3-methoxyphenyl)acryloyl)glycyl-L-threonyl-D-glutamate] | 
10 |  | 1.43 ± 0.01 fold increase |  |  |  | COc1cc(/C=C/C(=O)NCC(=O)N[C@H](C(=O)N[C@H](CCC(=O)N2CCCC2)C(=O)OC(C)(C)C)C(C)C)ccc1O [Compound 62, tert-Butyl (R)-2-((S)-2-(2-((E)-3-(4-Hydroxy-3-methoxyphenyl)acrylamido)acetamido)-3-methylbutanamido)-5-oxo-5-(pyrrolidin-1-yl)pentanoate] | 

Row | SMILES | EC50 (HEK-Blue NOD2 cells) [µM] | NOD2 activity at 2 μM (fold increase) [1] | EC50 [2] [µM] | Decrease of NOD2 agonistic activity/potency by a factor, relative to 1 (ratio of EC50 versus compound 1) | NOD2 activation (in words) (HEK-Blue NOD2 cells) | Enhancement of the NOD2 agonistic activity of 1 (HEK-Blue NOD2 cells, in combination with 1, data not shown)
11 | CCOC(=O)CC[C@@H](NC(=O)[C@H](COCc1ccccc1)NC(=O)CNC(=O)/C=C/c1ccc(O)c(OC)c1)C(=O)OCC [Compound 30, Diethyl O-Benzyl-N-(((E)-3-(4-hydroxy-3-methoxyphenyl)acryloyl)glycyl)-L-seryl-D-glutamate] | 5.56 | 2.04 fold increase and 2.04 ± 0.02 fold increase | 5.56 ± 1.47 |  |  | 
12 | CCOC(=O)CC[C@@H](NC(=O)[C@H](CO)NC(=O)CNC(=O)/C=C/c1ccc(O)c(OC)c1)C(=O)OCC [Compound 31, Diethyl ((E)-3-(4-Hydroxy-3-methoxyphenyl)acryloyl)glycyl-L-seryl-D-glutamate] |  | 1.21 fold increase and 1.21 ± 0.08 fold increase | > 20 |  |  | 
13 | CCCCCCCCCCCCCCCCCC(=O)Oc1ccc(/C=C/C(=O)NCC(=O)N[C@@H](COCc2ccccc2)C(=O)N[C@H](CCC(=O)OCC)C(=O)OCC)cc1OC [Compound 79, Diethyl O-Benzyl-N-(((E)-3-(3-methoxy-4-(stearoyloxy)phenyl)acryloyl)glycyl)-L-seryl-D-glutamate] |  | 1.68 fold increase and 1.68 ± 0.03 fold increase |  |  |  | 
